For orientation: EC50 means the concentration giving half of the maximal effect.

SMILES strings stand for the structures.

In test [1] the test system is HBV. The test is described as follows: Extracellular HBV DNA and pgRNA in HepAD38 cells (qPCR, RT-qPCR). It is filed as cell-based, Hepatitis B virus. As to conditions: HepAD38; concn ETV 0.01, ABI-H0731 2.0, GLS4 0.5, NVR 3-778 2.5, AT-130 0.8, VRD-32 0.8 μM. From the text:
For HBV RNA Northern blot analysis, total cellular RNA or encapsidated pgRNA samples were resolved in a 1.5% agarose gel containing 2.2 M formaldehyde and transferred onto a Hybond-XL membrane (GE Healthcare). For DNA Southern blot analysis, HBV core DNA or cccDNA samples were resolved by electrophoresis in a 1.2% agarose gel and blotted onto a Hybond-XL membrane. Membranes were probed with either an [α-^32P]UTP (3,000 Ci/mmol; PerkinElmer)-labeled plus-strand-specific (for Northern blot hybridization) or minus-strand-specific (for Southern blot hybridization) HBV riboprobe and exposed to a phosphorimager screen. Extracellular HBV DNA and RNA were copurified from the culture medium of induced HepAD38 cells by using a MinElute virus vacuum kit (Qiagen). Viral DNA was quantified using the above-mentioned qPCR method directly, and HBV RNA was detected by RT-qPCR with the same core region primer/probe set after the removal of DNA contamination by DNase I (Thermo Fisher) treatment.
(In qPCR the cycle at which signal appears reflects the starting amount.)

For test [2], the system named is HBV Cp T33N. The test is described as follows: microbe, parasite or virus in culture. It is filed as cell-based, Hepatitis B virus. To be noted: for EC50: Hepatitis B virus, Huh-7, read-out: Mean EC50; for Fold shift: T33N vs wild type.
Test [3] concerns HBV Cp T109I. The test is described as follows: microbe, parasite or virus in culture. Format: cell-based, Hepatitis B virus. To be noted: for EC50: Hepatitis B virus, Huh-7, read-out: Mean EC50; for Fold shift: T109I vs wild type.
Test [4] has as its system HBV Cp Y118F. The test is described as follows: microbe, parasite or virus in culture. It is filed as cell-based, Hepatitis B virus. To be noted: for EC50: Hepatitis B virus, Huh-7, read-out: Mean EC50; for Fold shift: Y118F vs wild type.
Test [5] relates to HBV (genotype D, subtype ayw). Kind of test: HBV replication assay in HepAD38 cells. Format: cell-based, Hepatitis B virus. As to conditions: Hepatitis B virus, HePAD38, HepAD38; total intracellular viral DNA; read-out: Mean EC50, viral DNA.
For test [6], the system named is HBV. Kind of test: HBV RNA/DNA analyses in induced HepAD38 cells (Northern/Southern blot). It is filed as cell-based, Hepatitis B virus. As to conditions: HepAD38, 10-fold over VR EC50.
For test [7], the system named is HBV Cp I105T. The test is described as follows: microbe, parasite or virus in culture. It is filed as cell-based, Hepatitis B virus. As to conditions: for EC50: Hepatitis B virus, Huh-7, read-out: Mean EC50; for Fold shift: I105T vs wild type.
Test [8] has as its system HBV. The test is described as follows: HBV infection of HepG2-NTCP cells. It is filed as cell-based. As to conditions: Hepatitis B virus.
The test system of test [9] is HBV Cp T109M. The test is described as follows: microbe, parasite or virus in culture. It is filed as cell-based, Hepatitis B virus. To be noted: for EC50: Hepatitis B virus, Huh-7, read-out: Mean EC50; for Fold shift: T109M vs wild type.
The test system of test [10] is HBV Cp I105L. The test is described as follows: microbe, parasite or virus in culture. To be noted: for EC50: Hepatitis B virus, Huh-7, read-out: Mean EC50; for Fold shift: I105L vs wild type. It is filed as cell-based, Hepatitis B virus.
The subject of test [11] is HBV Cp D29G. Kind of test: microbe, parasite or virus in culture. Format: cell-based, Hepatitis B virus. As to conditions: for EC50: Hepatitis B virus, Huh-7, read-out: Mean EC50; for Fold shift: D29G vs wild type.
Test [12] has as its system HBV Cp Wild type. The test is described as follows: microbe, parasite or virus in culture. It is filed as cell-based, Hepatitis B virus. To be noted: for EC50: Hepatitis B virus, Huh-7, read-out: Mean EC50; for Fold shift: Wild type.
In test [13] the test system is HBV Cp Y38C. The test is described as follows: microbe, parasite or virus in culture. Format: cell-based, Hepatitis B virus. To be noted: for EC50: Hepatitis B virus, Huh-7, read-out: Mean EC50; for Fold shift: Y38C vs wild type.
The subject of test [14] is HBV Cp Y38F. Kind of test: microbe, parasite or virus in culture. Format: cell-based, Hepatitis B virus. To be noted: for EC50: Hepatitis B virus, Huh-7, read-out: Mean EC50; for Fold shift: Y38F vs wild type.
Test [15] deals with HBV Cp P25A. The test is described as follows: microbe, parasite or virus in culture. It is filed as cell-based, Hepatitis B virus. To be noted: for EC50: Hepatitis B virus, Huh-7, read-out: Mean EC50; for Fold shift: P25A vs wild type.
The subject of test [16] is HBV. Kind of test: HBV infection of primary human hepatocytes (PHHs). Format: cell-based. To be noted: Hepatitis B virus, Hepatocyte, PHH.
The mark [17] stands for this setting: total intracellular viral DNA, read-out: Mean EC50, viral DNA.

As to `COc1ccccc1/C(Br)=C(/NC(=O)c1ccc([N+](=O)[O-])cc1)C(=O)N1CCCCC1` [AT-130], in [1], the “Extracellular DNA content (% of DMSO control)” value is given as 5.3 % of DMSO control and the “Extracellular pgRNA content (% of DMSO control)” value was 8.6 % of DMSO control.

For the compound `CCOC(=O)C1=C(CN2CCOCC2)NC(c2nccs2)=NC1c1ccc(F)cc1Br` (centres unmarked) [GLS4], the EC50 was 6340 nM in test [2]; 237 ± 16.6 nM in test [3]; 84.7 ± 2.3 nM in test [4]; 29 ± 9 nM in [5]; 17 ± 2.7 nM in test [7]; 550 nM in [8] (read-out: EC50, HBeAg production). In addition, the EC50 was determined as 670 nM in test [8] (read-out: EC50, HBsAg production); 280 nM in [8] (read-out: EC50, pgRNA production); 549 ± 48 nM in [8] (read-out: Mean EC50, HBeAg); 673 ± 41 nM in [8] (read-out: Mean EC50, HBsAg); 279 ± 43 nM in test [8] (read-out: Mean EC50, pgRNA); 58 ± 6 nM in [8] (setting [17]). Moreover, the EC50 is 15 ± 5.6 nM in test [9]; 12 ± 6.5 nM in [10]; 16.1 ± 0.4 nM in test [11]; 17.9 ± 0.4 nM in [12]; 17 ± 9.5 nM in test [13]; 65 ± 17 nM in test [14]. For the same compound, the EC50 in [15] turned out to be 451 ± 3.3 nM; in test [16] (read-out: EC50, HBeAg), 1480 nM; in [16] (read-out: EC50, HBsAg), 1860 nM; in [16] (read-out: EC50, pgRNA), 1930 nM; in [16] (setting [17]), 1940 nM. Further, the “Levels of encapsidated pgRNA by Northern blotting” value (from here on “Levels of encapsidated pgRNA”) in [6] was “virtually undetectable”. Also, the “rcDNA detection by Southern blot” value in test [6] is recorded as “could not be detected”. Further, the “Extracellular DNA content (% of DMSO control)” value in [1] is on record as 0.1 % of DMSO control. In addition, the “Extracellular pgRNA content (% of DMSO control)” value in test [1] is on record as 0.1 % of DMSO control.

On to `O=C1CO[C@H](c2cn(-c3ccc(F)cc3)nc2-c2ccc(F)cc2)N1CCc1ccc(O)cc1` [VRD-32], for which the EC50 turned out to be 1290 nM in test [2]; 15.8 ± 1.9 nM in [3]; 805 ± 423 nM in [4]; 103 ± 87 nM in test [7]; 25 ± 23 nM in test [9]; 40 ± 19 nM in test [10]. The EC50 in test [11] worked out at 13.8 ± 1 nM; in [12] it was 16.1 ± 7.8 nM; in test [13], 20 ± 1.4 nM; in test [14], 20 ± 10 nM; in [15], 15.9 ± 0.04 nM. In addition, the Fold shift is reported as 80 fold in test [2]; 1 fold in [3]; 50 fold in test [4]; 6.4 fold in test [7]; 1.6 fold in test [9]; 2.5 fold in test [10]. Also, the Fold shift in test [11] is 0.9 fold; in test [12], 1 fold; in test [13] it was 1.2 fold; in test [14], 1.3 fold; in [15], 1 fold. In addition, the “Levels of encapsidated pgRNA” value in test [6] was “virtually undetectable”. The “rcDNA detection by Southern blot” value in test [6] is given as “could not be detected”. In [1], the “Extracellular DNA content (% of DMSO control)” value is recorded as 0.3 % of DMSO control. Besides, the “Extracellular pgRNA content (% of DMSO control)” value in test [1] is recorded as 0.9 % of DMSO control.

For `O=C(Nc1cc(F)c(F)c(F)c1)c1ccc(F)c(S(=O)(=O)N2CCC(O)CC2)c1` [NVR 3-778], the EC50 in test [2] is greater than 10000 nM; in test [3], 77.4 ± 0.4 nM; in [4], 887 ± 478 nM; in [5] it was 238 ± 33 nM; in test [7], 726 ± 98 nM; in [8] (read-out: Mean EC50, HBeAg) it was 8360 nM. The EC50 in test [8] (read-out: Mean EC50, HBsAg) was 9260 nM; in [8] (read-out: Mean EC50, pgRNA), 7600 nM; in test [8] (setting [17]), 590 ± 71 nM; in [9], 161 ± 97 nM; in test [10] it was 127 ± 73 nM; in [11], 210 ± 52 nM. Besides, the half-maximal effective concentration (EC50) in test [12] is 178 ± 42 nM; in [13], 150 ± 48 nM; in test [14], 208 ± 49 nM; in test [15], 719 ± 58 nM; in [16] (read-out: Mean EC50, HBeAg) it was 4010 nM; in test [16] (read-out: Mean EC50, HBsAg) it was 5040 nM. In addition, the EC50 in test [16] (read-out: Mean EC50, pgRNA) was found to be 4200 nM; in test [16] (setting [17]), 1680 nM. Besides, the Fold shift is greater than 56 fold in [2]; 0.4 fold in test [3]; 5 fold in test [4]; 4.1 fold in test [7]; 0.9 fold in test [9]; 0.7 fold in [10]. The Fold shift in test [11] is recorded as 1.2 fold; in test [12] it was 1 fold; in test [13], 0.8 fold; in [14] it was 1.2 fold; in [15], 4 fold. In [6], the “Levels of encapsidated pgRNA” value is on record as “virtually undetectable”. Besides, the “Extracellular DNA content (% of DMSO control)” value in [1] is listed as 1.0 % of DMSO control. Moreover, the “Extracellular pgRNA content (% of DMSO control)” value in test [1] is 2.0 % of DMSO control.
